Experiments:
[1] = Dynamic vapor sorption (DVS) moisture sorption analysis; assay type: physicochemical
Protocol: Dynamic Vapor Sorption (DVS) The moisture sorption analysis (DVS) was performed using a ProUmid GmbH & Co. KG Vsorp Enhanced dynamic vapor sorption apparatus. The moisture profile was evaluated by monitoring vapor adsorption/desorption over the range of 0 to 90% relative humidity at 25° C. The sample weight equilibrium criteria were set at 0.01% change in 45 min with minimum and maximum time of acclimation at 50 min and 120 min, respectively. The moisture profile consisted of 2 cycles of vapor adsorption/desorption.

MOLM14 cells = assay: Proliferation assay (spheroid assay), MOLM14; assay type: cell-based; details: Homo sapiens, MOLM-14, 192 h, 8 days; read-out: spheroid assay_MOLM14 IC50
Protocol: The anti-proliferative effect of menin/MLL protein/protein interaction inhibitor test compounds was assessed in human leukemia cell lines. The cell line MOLM14 harbors a MLL translocation and expresses the MLL fusion protein MLL-AF9, respectively, as well as the wildtype protein from the second allele. OCI-AML3 cells that carry the NPM1c gene mutation were also tested. […] KO-52 was used as a control cell line containing two MLL (KMT2A) wildtype alleles in order to exclude compounds that display general cytotoxic effects.
MOLM14 cells were cultured in RPMI-1640 (Sigma Aldrich) supplemented with 10% heat-inactivated fetal bovine serum (HyClone), 2 mM L-glutamine (Sigma Aldrich) and 50 μg/ml gentamycin (Gibco). KO-52 and OCI-AML3 cell lines were propagated in alpha-MEM (Sigma Aldrich) supplemented with 20% heat-inactivated fetal bovine serum (HyClone), 2 mM L-glutamine (Sigma Aldrich) and 50 µg/ml gentamycin (Gibco).
In order to assess the anti-proliferative effects, 200 MOLM14 cells, […] or 300 KO-52 cells were seeded in 200 μl media per well in 96-well round bottom, ultra-low attachment plates (Costar, catalogue number 7007). Cell seeding numbers were chosen based on growth curves to ensure linear growth throughout the experiment. Test compounds were added at different concentrations and the DMSO content was normalized to 0.3%. Cells were incubated for 8 days at 37° C. and 5% CO2. Spheroid like growth was measured in real-time by live-cell imaging (IncuCyteZOOM, Essenbio, 4× objective) acquiring images at day 8. Confluence (%) as a measure of spheroid size was determined using an integrated analysis tool.
In order to determine the effect of the test compounds over time, the confluence in each well as a measure of spheroid size, was calculated. Confluence of the highest dose of a reference compound was used as baseline for the LC (Low control) and the confluence of DMSO treated cells was used as 0% cytotoxicity (High Control, HC).
Absolute IC50 values were calculated as percent change in confluence as follows: • LC=Low Control: cells treated with e.g. […] of the cytotoxic agent staurosporin, or e.g. cells treated with a high concentration of an alternative reference compound • HC=High Control: Mean confluence (%) (DMSO treated cells)
GraphPad Prism (version 7.00) was used to calculate the IC50. Dose-response equation was used for the plot of % Effect vs Log 10 compound concentration with a variable slope and fixing the maximum to 100% and the minimum to 0%.

MEIS1 mRNA expression = MEIS1 mRNA expression assay (Quantigene Singleplex) in MOLM14; assay type: cell-based; details: Homo sapiens, MOLM-14, 48 h, MOLM14 cells, 48 hours with compound
Protocol: 2b) MEIS1 mRNA Expression Assay
MEIS1 mRNA expression upon treatment of compound was examined by Quantigene Singleplex assay (Thermo Fisher Scientific). This technology allows for direct quantification of mRNA targets using probes hybridizing to defined target sequences of interest and the signal is detected using a Multimode plate reader Envision (PerkinElmer). The MOLM14 cell line was used for this experiment. Cells were plated in 96-well plates at 3,750 cells/well in the presence of increasing concentrations of compounds. After incubation of 48 hours with compounds, cells were lysed in lysis buffer and incubated for 45 minutes at 55° C. Cell lysates were mixed with human MEIS1 specific capture probe or human RPL28 (Ribosomal Protein L28) specific probe as a normalization control, as well as blocking probes. Cell lysates were then transferred to the custom assay hybridization plate (Thermo Fisher Scientific) and incubated for 18 to 22 hours at 55° C. Subsequently, plates were washed to remove unbound materials followed by sequential addition of preamplifiers, amplifiers, and label probe. Signals (=gene counts) were measured with a Multimode plate reader Envision. IC50s were calculated by dose-response modelling using appropriate software. For all non-housekeeper genes response equal counts corrected for background and relative expression. For each sample, each test gene signal (background subtracted) was divided by the normalization gene signal (RPL28: background subtracted). Fold changes were calculated by dividing the normalized values for the treated samples by the normalized values for the DMSO treated sample. Fold changes of each target gene were used for the calculation of IC50s.

[2] = target: T1, Menin/MLL (terbium chelate-labeled menin, FITC-MBM1 peptide) (Homo sapiens, UniProt O00255, T541A); assay: Menin/MLL homogenous time-resolved fluorescence (HTRF) assay; assay type: binding; details: 30 min incubation of test compound with terbium chelate-labeled menin
T1 construct: Menin (a.a 1-610-6×his tag)
T1 sequence (O00255 with tags, fused parts or gaps T541A): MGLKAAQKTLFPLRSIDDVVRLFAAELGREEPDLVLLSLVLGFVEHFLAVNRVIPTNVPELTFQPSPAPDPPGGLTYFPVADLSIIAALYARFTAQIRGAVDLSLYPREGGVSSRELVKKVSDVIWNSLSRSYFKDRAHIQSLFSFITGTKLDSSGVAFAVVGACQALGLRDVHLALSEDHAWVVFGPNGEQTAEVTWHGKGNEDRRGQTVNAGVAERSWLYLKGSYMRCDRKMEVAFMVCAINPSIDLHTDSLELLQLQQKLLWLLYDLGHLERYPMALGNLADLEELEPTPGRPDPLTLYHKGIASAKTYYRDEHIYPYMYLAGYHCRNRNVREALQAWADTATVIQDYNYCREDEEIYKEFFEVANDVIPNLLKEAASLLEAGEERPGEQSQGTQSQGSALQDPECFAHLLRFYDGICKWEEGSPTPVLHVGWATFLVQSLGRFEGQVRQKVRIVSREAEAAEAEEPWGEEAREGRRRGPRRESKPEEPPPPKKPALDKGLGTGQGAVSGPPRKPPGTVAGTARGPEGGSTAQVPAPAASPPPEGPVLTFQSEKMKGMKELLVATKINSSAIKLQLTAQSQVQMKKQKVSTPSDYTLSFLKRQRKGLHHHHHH
Protocol: 1) Menin/MLL Homogenous Time-Resolved Fluorescence (HTRF) Assay
To an untreated, white 384-well microtiter plate was added 40 nL 200× test compound in DMSO and 4 μL 2× terbium chelate-labeled menin (vide infra for preparation) in assay buffer (40 mM Tris·HCl, pH 7.5, 50 mM NaCl, 1 mM DTT (dithiothreitol) and 0.05% Pluronic F-127). After incubation of test compound and terbium chelate-labeled menin for 30 min at ambient temperature, 4 μL 2×FITC-MBM1 peptide (FITC-O-alanine-[…]-NH2) (“FITC” means fluorescein isothiocyanate) in assay buffer was added, the microtiter plate centrifuged at 1000 rpm for 1 min and the assay mixtures incubated for 15 min at ambient temperature. The relative amount of menin-FITC-MBM1 complex present in an assay mixture is determined by measuring the homogenous time-resolved fluorescence (HTRF) of the terbium/FITC donor/acceptor fluorphore pair using an EnVision microplate reader (ex. 337 nm/terbium em. 490 nm/FITC em. 520 nm) at ambient temperature. The degree of fluorescence resonance energy transfer (the HTRF value) is expressed as the ratio of the fluorescence emission intensities of the FITC and terbium fluorophores (F^em 520 nm/F^em 490 nm). […]
Compound potencies were determined by first calculating % inhibition at each compound concentration according to equation 1: […]

[3] = common ambient RH of 40% to 75%

IC50 (MOLM14 cells)	IC50 (MEIS1 mRNA expression)	SMILES	further results
5 nM	7 nM	COCC(=O)N1CCC(C(C)N2CCC(Cc3cn(-c4ccc(F)cc4C(=O)N(C)C(C)C)c4cncc(C)c34)C2)CC1 (single isomer, unassigned) [Compound 117a]	–
41 nM	7 nM	CNC(=O)N1CCC(CN2CC[C@H](Cc3cn(-c4ccc(F)cc4C(=O)N(C)C(C)C)c4cncc(C)c34)C2)CC1 (single isomer, unassigned) [Compound 101]	–
42 nM	187 nM	CC(=O)N1CCC(N2CC[C@H](Cc3cn(-c4ccc(F)cc4C(=O)N(C)C(C)C)c4cncc(C)c34)C2)CC1 [Compound 156]	–

Continued, compound first:

SMILES	IC50 (MOLM14 cells)	IC50 (MEIS1 mRNA expression)	further results
CC(=O)N1CCC(CN2CC[C@@H](Cc3cn(-c4ccc(F)cc4C(=O)N(C)C(C)C)c4cncc(C)c34)C2)CC1.Cl [Compound 51a]	–	–	solid-state form stability after the DVS test (XRPD) ([1]; 2 cycles of vapor adsorption/desorption): No indication of a solid-state form change was observed; total moisture mass at equilibrium [1, 3]: 8.5-9.5%; water content at equilibrium [1, 3]: around 3 equivalents of water; hygroscopicity (DVS change in mass) ([1]; crystalline HCl salt Form, 0 to 90% relative humidity at 25° C.): hygroscopic; moisture adsorbed and desorbed, by mass on average ([1]; humidity range of 20-90% RH, 25° C., slowly and reversibly): up to 2.5%
CC(=O)N1CC[C@@H](N2CC(Cc3cn(-c4ccc(F)cc4C(=O)N(C)C(C)C)c4cncc(C)c34)C2)C[C@H]1C (single isomer, unassigned) [Compound 292a]	–	–	IC50 [2]: 0.132 nM
CC(=O)N1C[C@H]2CC(N3CC(Cc4cn(-c5ccc(F)cc5C(=O)N(C)C(C)C)c5cncc(C)c45)C3)C[C@H]2C1 (single isomer, unassigned) [Compound 294a]	–	365 nM	IC50 [2]: 0.237 nM
Cc1cncc2c1c(CC1CN(CC3CCNC(=O)C3)C1)cn2-c1ccc(F)cc1C(=O)N(C)C(C)C (stereo not shown) [Compound 196]	–	438 nM	–
CC(=O)N1CC2CC(N3CC(Cc4cn(-c5ccc(F)cc5C(=O)N(C)C(C)C)c5cncc(C)c45)C3)CC2C1 (stereo not shown) [Compound 294b]	–	153 nM	–
